# Results from US20240245633A1, “ROR Gamma Agonists as Enhancers of Protective Immunity” (University of Florida Research Foundation, Incorporated, priority 2015, published 2024).
# Marks after values point to notes of the source that are not given here.
# Assays:
# Gal4-RORγ [1] = molecular target: T1, Gal4-RORγ (Homo sapiens, UniProt P51449); design: RORγt activity after pre-treatment; fold induction of reporter gene expression; other: single concentration 30 μM; induction of luciferase expression at highest concentration of the concentration response curve; other: 30 μM, 2 μM urs; luciferase reporter gene expression; conditions: recently identified putative endogenous agonist; cited from earlier work
# T1 sequence (P51449 269-508 limits assumed): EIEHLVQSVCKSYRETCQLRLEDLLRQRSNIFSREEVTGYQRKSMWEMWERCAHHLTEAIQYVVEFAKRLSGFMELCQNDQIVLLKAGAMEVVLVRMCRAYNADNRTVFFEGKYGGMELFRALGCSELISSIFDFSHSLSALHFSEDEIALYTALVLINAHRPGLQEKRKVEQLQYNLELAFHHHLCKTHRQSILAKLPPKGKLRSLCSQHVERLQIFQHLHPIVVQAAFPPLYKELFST
# RORγt LBD = molecular target: T2, RORγt LBD (Homo sapiens, UniProt P51449); test: Differential HDX-MS of RORγt LBD ± compounds; assay type: binding
# T2 construct: 5 μL of a 10 μM RORγt LBD solution (Apo or in complex with 10-excess compound)
# T2 sequence (P51449 269-508 limits assumed): T1 sequence (P51449 269-508 limits assumed)
# Source text: (§1) While the mechanism of action of RORγt agonists on regulation of the immune checkpoint receptor PD-1 is unclear, a correlation between RORγt and PD-1 expression has been observed in PD-1 knockout mice Z Regardless, to gain insights into the structural mechanism for agonist activity we examined the impact of putative agonist ligands on the conformational dynamics of RORγt. To achieve this, we utilized differential hydrogen/deuterium exchange (HDX) mass spectrometry.
# (§2) HDX-MS. Solution-phase amide HDX was performed with a fully automated system as described previously with minor modifications^30,31. For differential HDX experiments, 5 μL of a 10 μM RORγt LBD solution (Apo or in complex with 10-excess compound) was diluted to 25 μL with D20-containing HDX buffer, and incubated at 4° C. for; 10 s, 30s, 60s, 900s, and 3,600s, Following on-exchange, unwanted forward or back exchange is minimized and the protein is denatured by dilution to 50 μL with 0.1% TFA in 3M urea (held at 4° C., pH 2.5). Samples are then passed across an immobilized pepsin column (prepared in house) at 50 μL min−1 (0.1% TFA, 15° C.) and the resulting peptides are trapped onto a Ce trap cartridge (Thermo Fisher, Hypersil Gold). Peptides were then gradient eluted (4% CH3CN to 40% CH3CN, 0,3% formic acid over 5 minutes, 4° C.) across a 1 mm×50 mm Cia HPLC column (Hypersil Gold, Thermo Fisher) and electrosprayed directly into a high resolution orbitrap mass spectrometer (Exactive, Thermo Fisher). Percent deuterium exchange values for peptide isotopic envelopes at each time point were calculated and processed using HDX Workbench^32 and overlaid onto RORγt crystal structures using pyMOL (DeLano Scientific). HDX data is presented as an average of three individual replicates across […] time points (10s, 60s, 300s, 900s, and 3600s).
# [2] = molecular target: T3, RORγt LBD pretreated with ursolic acid (Homo sapiens, UniProt P51449); test: Differential HDX-MS of RORγt pretreated with ursolic acid ± compound; assay type: binding
# T3 construct: 5 μL of a 10 μM RORγt LBD solution (Apo or in complex with 10-excess compound)
# T3 sequence (P51449 269-508 limits assumed): T1 sequence (P51449 269-508 limits assumed)
# Source text: as §1, §2
# Gal4-RORγ [3] = molecular target: T1, Gal4-RORγ; conditions: 30 μM, 2 μM ursolic acid
compound,measurement,setting,value
CC(C)=CCC[C@@H](C)[C@H]1CC[C@H]2[C@@H]3CC=C4C[C@@H](O)CC[C@]4(C)[C@H]3CC[C@]12C [desmosterol],restoring RORγt activity in the presence of ursolic acid,Gal4-RORγ [1],capable of restoring RORγt activity in the presence of ursolic acid
same,"Differential HDX kinetics, peptide TEIEHLVQSVC","RORγt LBD; 268-278, charge 2, H1",−1(4)*
same,"Differential HDX kinetics, peptide TEIEHLVQSVCXS","RORγt LBD; 268-280, charge 3, H1",0(5)*
same,"Differential HDX kinetics, peptide TEIEHLVQSVCKSYRETCQ","RORγt LBD; 268-286, charge 2, H1",−5(3)
same,"Differential HDX kinetics, peptide LRLEDL","RORγt LBD; 287-292, charge 2, H2",−5(4)*
same,"Differential HDX kinetics, peptide RLEDLL","RORγt LBD; 288-293, charge 2, H2",−6(3)
same,"Differential HDX kinetics, peptide RLEDLLRQRSNIFSRE","RORγt LBD; 288-303, charge 4, H2/H3",−10(4)
same,"Differential HDX kinetics, peptide WERCAHHLTEAIQ","RORγt LBD; 317-329, charge 2, H4",−5(1)*
same,"Differential HDX kinetics, peptide WERCAHHTEAIQY","RORγt LBD; 317-330, charge 3, H4",−4(1)*
same,"Differential HDX kinetics, peptide WEGAKRLSGF","RORγt LBD; 331-341, charge 2, H4/H5",−1(1)*
same,"Differential HDX kinetics, peptide AKRLSGF","RORγt LBD; 335-341, charge 2, H4/H5",−1(2)*
same,"Differential HDX kinetics, peptide CQNDQVL","RORγt LBD; 345-352, charge 1, H5/H6",0(1)*
same,"Differential HDX kinetics, peptide VRMCRAYNAENRTVF","RORγt LBD; 363-377, charge 3, H6/B1",−7(2)
same,"Differential HDX kinetics, peptide CRAYCAONRTVF","RORγt LBD; 366-377, charge 2, B1",−5(2)
same,"Differential HDX kinetics, peptide FEGKYGGMEL","RORγt LBD; 373-387, charge 2, B2/H7",−6(3)
same,"Differential HDX kinetics, peptide FRALGCSE","RORγt LBD; 386-398, charge 2, H7/H8",−4(3)*
same,"Differential HDX kinetics, peptide LISSIFDFSHSLSAL","RORγt LBD; 395-410, charge 2, H8",−4(2)*
same,"Differential HDX kinetics, peptide ISSIFD","RORγt LBD; 397-402, charge 1, H8",−4(2)*
same,"Differential HDX kinetics, peptide ISSIFDFSHSL","RORγt LBD; 397-407, charge 2, H8",−4(2)*
same,"Differential HDX kinetics, peptide ISSIFDSHSLSAL","RORγt LBD; 397-410, charge 2, H8",−4(2)*
same,"Differential HDX kinetics, peptide DFSHSLSAL","RORγt LBD; 402-410, charge 1, H8",−5(3)
same,"Differential HDX kinetics, peptide FSHSLSAL","RORγt LBD; 403-410, charge 2, H8",−4(3)*
same,"Differential HDX kinetics, peptide HFSEDEIAL","RORγt LBD; 411-419, charge 2, H9",−1(1)*
same,"Differential HDX kinetics, peptide LAFHHHLCKTHRQSL","RORγt LBD; 448-463, charge 4, H10",−3(2)*
same,"Differential HDX kinetics, peptide AKLPFXGKLRSLCSQ","RORγt LBD; 464-478, charge 3, H11",−12(4)
same,"Differential HDX kinetics, peptide HVERLQFQHLHPIVVQ","RORγt LBD; 479-495, charge 2, H11",−12(4)
same,"Differential HDX kinetics, peptide QFQHLHPIVVQ","RORγt LBD; 484-495, charge 2, H11",−6(4)*
same,"Differential HDX kinetics, peptide AAFPPLYXEL","RORγt LBD; 495-505, charge 2, H12",−2(4)*
same,"Differential HDX kinetics, peptide AAFPPLYZELF","RORγt LBD; 496-506, charge 2, H12",−3(3)*
same,HDX kinetics in helix 12 (H12),RORγt LBD; RORγt LBD ± compound,No statistically significant change in HDX kinetics
same,"Differential HDX kinetics, peptide TEIEHLVQ","RORγt LBD; charge 2, H1, percent deuterium exchange difference",−2(5)*
same,protection to solvent exchange in H12,"[2]; RORγt exposed to ursolic acid, then compound",not observed
same,"Differential HDX kinetics, peptide TEIEHLVQ","[2]; UA pretreated, 268-275, charge 2, H1",−1(4)*
same,"Differential HDX kinetics, peptide TEIEHLVQSVC","[2]; UA pretreated, 268-278, charge 2, H1",−2(4)*
same,"Differential HDX kinetics, peptide TEIEHLVQSVCKS","[2]; UA pretreated, 268-280, charge 3, H1",2(2)*
same,"Differential HDX kinetics, peptide TEIEHLVQSVCKSYRETCQ","[2]; UA pretreated, 268-286, charge 3, H1",−1(3)*
same,"Differential HDX kinetics, peptide TEIEHLVQSVCKSYRETCQ","[2]; UA pretreated, 268-286, charge 4, H1",0(3)*
same,"Differential HDX kinetics, peptide RLEDL","[2]; UA pretreated, 288-292, charge 1, H2",10(2)*
same,"Differential HDX kinetics, peptide RLEDLL","[2]; UA pretreated, 288-293, charge 1, H2",10(2)*
same,"Differential HDX kinetics, peptide EVTGYQRKSMWEM","[2]; UA pretreated, 304-316, charge 2, H3/H4",−6(3)*
same,"Differential HDX kinetics, peptide WERCAHHLTEAIQ","[2]; UA pretreated, 317-329, charge 3, H4",−1(1)*
same,"Differential HDX kinetics, peptide WERCAHHTEAIQY","[2]; UA pretreated, 317-330, charge 3, H4",0(1)*
same,"Differential HDX kinetics, peptide WEGAKRLSGF","[2]; UA pretreated, 331-341, charge 2, H4/H5",−1(2)*
same,"Differential HDX kinetics, peptide FAKRLSGF","[2]; UA pretreated, 334-341, charge 2, H4/H5",0(2)*
same,"Differential HDX kinetics, peptide CQNDQM","[2]; UA pretreated, 345-352, charge 1, H5/H6",0(1)*
same,"Differential HDX kinetics, peptide CRAYNADNRTVF","[2]; UA pretreated, 368-377, charge 2, B1",0(2)*
same,"Differential HDX kinetics, peptide YNADNRTVF","[2]; UA pretreated, 369-377, charge 2, B1",−1(3)*
same,"Differential HDX kinetics, peptide FEGKYGGMEL","[2]; UA pretreated, 378-387, charge 2, B2/H7",−1(3)*
same,"Differential HDX kinetics, peptide FRALGCSEL","[2]; UA pretreated, 388-395, charge 2, H7/H8",−1(2)*
same,"Differential HDX kinetics, peptide LISSIFDFSHSLSAL","[2]; UA pretreated, 396-410, charge 2, H8",0(2)*
same,"Differential HDX kinetics, peptide ISSIFD","[2]; UA pretreated, 397-407, charge 1, H8",−3(2)*
same,"Differential HDX kinetics, peptide ISSIFDFSHSLSAL","[2]; UA pretreated, 397-410, charge 2, H8",0(2)*
same,"Differential HDX kinetics, peptide IFDFSHSLSAL","[2]; UA pretreated, 400-410, charge 2, H8",4(3)*
same,"Differential HDX kinetics, peptide DFSHSKSAL","[2]; UA pretreated, 402-410, charge 2, H8",3(2)*
same,"Differential HDX kinetics, peptide FSHSLSAL","[2]; UA pretreated, 403-410, charge 2, H8",0(3)*
same,"Differential HDX kinetics, peptide AXLPPXGKLRSLCSQ","[2]; UA pretreated, 454-478, charge 3, H11",−1(4)*
same,"Differential HDX kinetics, peptide HVERLQIFQHLHPIWQ","[2]; UA pretreated, 479-495, charge 2, H11",−6(3)*
same,"Differential HDX kinetics, peptide AAFPPLYKEL","[2]; UA pretreated, 496-505, charge 2, H12",−4(2)*
same,"Differential HDX kinetics, peptide AAFPPLYKELF","[2]; UA pretreated, 496-506, charge 2, H12",−3(2)*
same,"Differential HDX kinetics, peptide HFSEDEIAL","[2]; UA pretreated, charge 2, H9",−1(2)*
same,"Differential HDX kinetics, peptide QIFQHLHPIWQ","[2]; UA pretreated, charge 2, H11",−3(3)*
same,"Differential HDX kinetics, peptide TEIEHLVQSVCKSYRETCQL","[2]; UA pretreated, charge 3, H1",−3(4)*
same,"Differential HDX kinetics, peptide VRMCRAYNADNRTVF","[2]; UA pretreated, charge 3, H6/B1",−1(1)*
same,induction of luciferase expression at highest concentration of the concentration response curve,Gal4-RORγ [3],~2 fold
